Measured values: patent publication US9867795B2, “Nitrated lipids and methods of making and using thereof” (The UAB Research Foundation, priority 2004, dated 2018)
Values joined by “and” are separate entries in the source; they are usually repeats but may differ in a detail not shown here. Identical values can stand only once. “Also recorded” adds a separate entry of the source.

What was measured:
3T3-L1 adipocytes = experiment: [^3H]-2-Deoxy-D-glucose uptake assay in differentiated 3T3-L1 adipocytes; format: cell-based; conditions: test compounds for 2 days; LNO2 1-10 μM
Method: [^3H]-2-Deoxy-D-glucose Uptake Assay in Differentiated 3T3-L1 Adipocyte. [^3H]-2-Deoxy-D-glucose uptake assay as previously described (19) 3T3-L1 preadipocytes were grown in 24-well tissue culture plates, 2-day postconfluent preadipocytes were treated by 10 μg/ml insulin (Sigma), 1 μM dexamethasone (Sigma), and 0.5 mM 3-isobutyl-1-methylxanthine (Sigma) in DMEM containing 10% FBS for two days, then cells were kept in 10 μg/ml insulin also in DMEM containing 10% FBS for 6 days (changed medium every three days). Eight days after induction of adipogenesis, test compounds in DMEM containing 10% FBS were added for an additional 2 days (changed medium every day) and PPARγ-specific antagonist GW9662 were pretreated 1 h before other additions. After two rinses with serum-free DMEM, cells were incubated for 3 h in serum-free DMEM and rinsed at room temperature three times with freshly prepared KRPH buffer (5 mM phosphate buffer, 20 mM HEPES, 1 mM MgSO4, 1 mM CaCl2, 136 mM NaCl, 4.7 mM KCl, pH 7.4). The buffer was replaced with 1 μCi/ml of [^3H]-2-deoxy-D-glucose in KRPH buffer for 10 min at room temperature. The treated cells were rinsed carefully three times with cold PBS, lysed overnight in 0.8N NaOH (0.4 ml/well), and neutralized with […] of 12N HCl. Lysate (360 μl) was added to 4 ml Scinti-Safe Plus TM 50% in a scintillation vial, and the vials were mixed and counted.
[^3H]-2-Deoxy-D-glucose uptake assay in differentiated 3T3-L1 adipocytes. [^3H]-2-deoxy-D-glucose uptake was analyzed as previously (23). […] Cells were then rinsed three times with cold PBS, lysed overnight in 0.8 N NaOH (0.4 ml/well), neutralized with 26.6 μl of 12 N HCl and 360 μl of lysate was added into 4 ml Scinti-Safe Plus™ 50% for radioactivity determination by liquid scintillation counting.

[1] = Storage stability in CH3OH under argon at −80° C.; format: physicochemical; conditions: in CH3OH/methanol under argon at −80° C.
Method: LNO2 synthesis. Linoleic acid/HgCl2/phenylselenium bromide/NaNO2 (1:1.3:1:1, mol/mol) were combined in THF/acetonitrile (1:1, v/v) with a final concentration of 0.15 M linoleic acid. Care was taken to use anhydrous solvents, dry glassware and reagents that had been dried in vacuo over phosphorus pentoxide. The reaction mixture was stirred (4 h, 25° C.) followed by centrifugation to sediment the precipitate. The supernatant was recovered, the solvent evaporated in vacuo, the product mixture redissolved in THF (original volume) and the temperature reduced to 0° C. A 10-fold molar excess of H2O2 was slowly added with stirring to the mixture then allowed to rest in an ice bath for 20 min followed by a gradual warming to room temp (45 min). The product mixture was extracted with equal parts saturated NaCl and diethyl ether, the organic phase collected, the solvent removed in vacuo and the lipid products were resolvated in CH2Cl2/CH3OH (4:1, v/v). […] Under these conditions, purified nitrated linoleic acid is stable for >3 months. Large scale purification of the individual positional isomers was performed by preparative HPLC using a 250×21.2 mm C18 Phenomenex Luna column (5 μm particle size). […]

3T3-L1 preadipocytes = conditions: for 3T3-L1 preadipocyte differentiation induced: two weeks, oil red O, LNO2 3 μM, OA-NO2 1 μM
[2] = LNO2 and OA-NO2 decay in phosphate buffer; format: physicochemical; conditions: 3 μM, 100 mM phosphate buffer, pH 7.4, 37° C.
Method: LNO2 and OA-NO2 decay. […] During the two hour incubation, aliquots were removed and analyzed for LNO2 and OA-NO2 content. […] Non-decayed LNO2 and OA-NO2 were quantitated via HPLC ESI-MS/MS as described above.

Substance	[^3H]-2-deoxy-D-glucose uptake (3T3-L1 adipocytes)	time stable on storage [1]	3T3-L1 preadipocyte differentiation induced (3T3-L1 preadipocytes)	decay after 2 hr [2]	share degraded after 2 hr [2]	expression of adipocyte markers (PPARγ2 and aP2) (3T3-L1 preadipocytes; immunoblot of cell lysate)
9- and 10-nitro-9-cis-octadecenoic acid [OA-NO2]	induced an increase; also recorded: induced significant increases in glucose uptake	> 3 months	~60%	only minimal decay	25%	
10-nitro-9,12-octadecadienoic acid and 12-nitro-9,12-octadecadienoic acid [LNO2]	dose-dependent increase in glucose uptake; also recorded: greater than that observed for equimolar 15-deoxy-PGJ2, equivalent to Rosiglitazone; also recorded: paralleled	> 3 months	> 30% and ~30%		~80%	resulted in expression of specific adipocyte markers
